Assay results taken from EP3049422B1, “INTUMESCENT COATINGS” (MIPA SE, priority 2013, dated 2015).
Read-outs that look alike come from different tables or passages of the source.

Assay: Water solubility of the salts
Format: physicochemical
Text: Organische Lösungsmittel tragen zur Umweltverschmutzung bei und deshalb ist es wünschenswert, Wasser als Basis für Reaktionen oder auch Lacke zu verwenden. […] Wir beobachteten, dass vor allem die Kombination mit Alkalimetallen zu einer sehr guten Löslichkeit führte.
Ein wichtiges Kriterium für die Auswahl der Substanzen für eingehendere Studien, war deren Wasserlöslichkeit. Ausgeschlossen wurden vor allem Verbindungen, die höhere Kationen als die Alkalimetalle enthalten, da diese nur sehr schlecht löslich sind. Trotzdem wurde zumindest für zwei wasserunlösliche Salze versucht, sie als Suspensionen aufzubringen. Ausgewählt wurden dafür ALDA und Calcium(II)hydantoinat.

Row | Compound | Wasser löslich | Wasserlöslichkeit | Wasserlöslichkeit (in words)
1 | O=C1CN(CN2CC(=O)NC2=O)C(=O)N1 [1,1'-(Methylen) bishydantoin Kalium, Kalium(I)N,N'-methylenbishydantoinat] | + |  | 
2 | O=C1CN(CN2CC(=O)NC2=O)C(=O)N1 [1,1'-(Methylen) bishydantoin Natrium, Natrium(I)N,N'-methylenbishydantoinat] | + |  | 
3 | CC(N1CC(=O)NC1=O)N1CC(=O)NC1=O [1,1'-(Methylmethylen) bishydantoin Calcium] [Calcium(II)N,N'-(methylmethylen)bishydantoinat] | + |  | 
4 | CC(N1CC(=O)NC1=O)N1CC(=O)NC1=O [1,1'-(Methylmethylen) bishydantoin Kalium] [Kalium(I)N,N'-(methylmethylen)bishydantoinat] | + |  | 
5 | CC(N1CC(=O)NC1=O)N1CC(=O)NC1=O [1,1'-(Methylmethylen) bishydantoin Natrium] [Natrium(I)N,N'-(methylmethylen)bishydantoinat] | + |  | 
6 | NC(=O)NC1NC(=O)NC1=O (stereo not shown) [Allantoin Calcium, Calcium(II)allantoinat] | + |  | 
7 | NC(=O)NC1NC(=O)NC1=O (stereo not shown) [Allantoin Kalium, Kalium(I)allantoinat] | + |  | 
8 | NC(=O)NC1NC(=O)NC1=O (stereo not shown) [Allantoin Natrium, Natrium(I)allantoinat] | + |  | 
9 | NC(=O)NC1NC(=O)NC1=O (stereo not shown) [Allantoin, reference compound] |  | schlecht wasserlöslich | 
10 | O=C1CN(CN2CC(=O)[N-]C2=O)C(=O)[N-]1.OC[P+](CO)(CO)CO.OC[P+](CO)(CO)CO [Bis[tetrakis(hydroxymethyl)phosphonium]N,N'-methylenbishydantoinat] | + |  | 
11 | O=C1CNC(=O)N1 [Hydantoin Calcium, Calcium(II)hydantoinat] | - |  | wasserunlösliche
12 | O=C1CNC(=O)N1 [Hydantoin Kalium, Kalium(I)hydantoinat] | + |  | 
13 | O=C1CNC(=O)N1 [Hydantoin Natrium, Natrium(I)hydantoinat] | + |  | 
14 | O=C1CNC(=O)N1 [Hydantoin Tetramethylammonium, Tetramethylammoniumhydantoinat] | + |  | 
15 | O=C1CNC(=O)N1 [Hydantoin, reference compound] |  |  | schlecht wasserlöslich
16 | Dihydroxyaluminiumallantoinat [Allantoin Al(OH)2*, reference compound] | - |  | wasserunlösliche
17 | Tetrakis(hydroxymethyl)phosphoniumhydantoinat | + |  | 
